Results reported in patent US20130344106A1, “Methods and Compositions for Improving Immune Response by a Nutraceutical Antioxidant” (priority 2008, published 2013).
Entries after “also recorded” stand apart in the source; their conditions may differ.

Assays:
[1] = test system: heme oxygenase 1 mRNA; conditions: BM-DCs from old animals; SFN 5 μmol/L for 24 hours; P<0.05
Description: (§1) FIG. 9. […] A. Total RNA was extracted from CD11c^+ BM-DCs to perform real-time PCR for p2E.
(§2) Total RNA was extracted from DCs or tissues by using the RNeasy Mini Kit (Qiagen, Inc, Valencia, Calif.), according to the manufacturer's recommendations. Contaminating DNA was removed with a DNA-free kit (Ambion, Inc, Austin, Tex.). Total RNA was spectrophotometrically quantitated. A 1 μg RNA sample was reverse transcribed by using the iScriptTMcDNA Synthesis Kit (Bio-Rad Laboratories, Hercules, Calif.). The cDNA templates were stored at −40° C.
(§3) PCR was carried out with an iQTM SYBR Green Supermix (Bio-Rad Laboratories) by using an iCycler (Bio-Rad Laboratories), according to the manufacturer's instructions. The sequences for the primers for IFN-γ, IL-4, T-bet, heme oxygenase 1, Nrf2, NQO1, glutathione S-transferase, GCLS, GPx, and β-actin are summarized in Table 1. The final PCR mixture contained 1 μL of cDNA template and 400 nM of the forward and reverse primers in a final volume of 25 μL. Samples were run concurrently with a standard curve prepared from the PCR products. Serial dilutions were performed to obtain appropriate template concentrations. B-Actin was used as a reference gene for the recovery of RNA, as well as reverse transcription efficiency. Melting curve analysis was used to confirm specific replicon formation.

[2] = test system: γ-GCLS mRNA; conditions: BM-DCs from old animals; SFN 5 μmol/L for 24 hours; P<0.05
Description: as §1, §2, §3

[3] = test system: NQO1 mRNA; conditions: BM-DCs from old animals; SFN 5 μmol/L for 24 hours; P<0.001
Description: as §1, §2, §3

[4] = test system: p2Es (NQO1, glutathione S-transferase, γ-GCLS, and GPx) mRNA; conditions: SFN administration versus livers of control animals
Description: (§4) SFN (9 μmol/d per mouse) in 0.2 mL, of corn oil was administered by means of gavage on consecutive days. The control group received corn oil alone. Pretreatment with SFN or corn oil commenced 5 days before and was carried through until the performance of the antigen challenge (i.e., 11 days total).
as §2
as §3, with “B-Actin was used as a reference gene for the recovery of RNA, as well as reverse transcription efficiency. Melting curve analysis was used to confirm specific replicon formation.” left out

[5] = test system: IL-4 mRNA; conditions: old mice; SFN gavage; 48 hours after DNFB challenge
Description: (§5) Oxazalone (OXA; 3%), dissolved in 100% ethanol, was applied on the shaved mouse abdomen on day 0. Control animals were exposed to vehicle alone. Six days after sensitization, mice were challenged on both sides of both ears by means of epicutaneous application of 20 μL of a 1% OXA solution (Gaspari and Katz, Current Protocols in immunology, John Wiley & Sons (Hoboken, N.J., 2003)). 2,4-Dinitro-1-fluambenzene (DNFB) sensitization was accomplished by the application of 0.5% of the chemical dissolved in 4:1 acetone/olive oil onto the shaved abdomen (days 0 and 1). On day 5, mice were challenged by means of epicutaneous application of 0.2% DNFB on both ears. Ear thickness was measured before and 24 and 48 hours after challenge by using a dial thickness gauge (Mitutoyo, Japan). Mice were killed 48 hours after challenge, and ear tissues were removed for RNA extraction and cytokine message expression, as well as for hematoxylin and eosin staining.
as §2
(§6) PCR was carried out with an iQTM SYBR Green Supermix (Bio-Rad Laboratories) by using an iCycler (Bio-Rad Laboratories), according to the manufacturer's instructions. The sequences for the primers for IFN-γ, IL-4, T-bet, heme oxygenase 1, Nrf2, NQO1, glutathione S-transferase, GCLS, GPx, and β-actin are summarized in Table 1. The final PCR mixture contained 1 μL of cDNA template and 400 nM of the forward and reverse primers in a final volume of 25 μL. […]
(§7) IFN-γ and IL-4 message levels were measured in the ear tissues that were taken 48 hours after challenge to determine whether the induction of the CHS response is accompanied by polarized T cell differentiation.

[6] = test system: T-bet mRNA; conditions: old versus young sensitized animals; SFN gavage; DNFB challenge
Description: as §5, §2, §6, §7

[7] = test system: IFN-γ mRNA; conditions: old mice; SFN gavage; 48 hours after DNFB challenge
Description: as §5, §2, §6, §7

[8] = test system: BM-DCs from old mice; assay: CHS response by adoptive transfer of DNBS-pulsed BM-DCs treated ex vivo; type: in vivo, mouse; conditions: DNFB challenge of young recipients
Description: For sensitization (day 0), 0.5×10^6 DNBS-treated DCs were injected subcutaneously with 100 μL of saline into the flanks of recipient mice. Five days later, mice were challenged by means of DNFB application to the ear. Mice injected with the same number of unmodified DCs or mock treated and challenged with vehicle alone served as negative controls.

[9] = SFN administration by gavage
Description: (§8) Young (2-4 months) and old (19-22 mouths) female C57BL/6 (B6) mice were obtained from the Jackson Laboratory and the National Institute of Aging colony (Bethesda, Md.), respectively. Nrf2^+/+ and nrf2^−/− mice, which were initially obtained from Dr. Y. Kan (Chan and Kan, Proc Natl Acad Sci USA, 96:1231-6 (1997)), were backcrossed onto a C57BL/6 background for 7 generations.
as §4

[10] = test system: GATA-3; conditions: SFN gavage; DNFB challenge
Description: as §7

[11] = test system: CD11c+ BM-DCs; assay: MBB staining and flow cytometry of cellular thiol in BM-DCs; conditions: P<0.05
[12] = test system: old female C57BL/6 (B6) mice; conditions: SFN gavage
From the text: as §8
as §5, with “staining. […]” for “staining.”

[13] = test system: Nrf2-mediated phase II enzyme (p2E) gene expression; conditions: absent in Nrf2-deficient animals; recent studies; cited from earlier work
[14] = test system: Nrf2; conditions: old rats; cited from earlier work
[15] = test system: OXA-treated BALB/c mice; conditions: Särnstrand et al.; cited from earlier work
[16] = test system: BALB/c mice; conditions: orally administered 1.6 g/kg, Senaldi et al.; cited from earlier work
[17] = test system: cellular proteins; conditions: NAC at the time of TNCB sensitization; Bruchhausen et al.; cited from earlier work

C[S+]([O-])CCCCN=C=S (centres unmarked) [SFN, sulforaphane]
heme oxygenase 1 mRNA level [1]: significant upregulation
γ-GCLS mRNA level [2]: significant upregulation
NQO1 mRNA level [3]: significant upregulation
p2E mRNA levels in liver (NQO1, glutathione S-transferase, γ-GCLS, GPx) [4]: message levels for 3 of the 4 genes were increased
IL-4 message level in ear tissue [5]: not significantly affected
T-bet message level in ear tissue [6]: prevented this decrease to a significant degree
IFN-γ message level in ear tissue [7]: significantly increased
CHS response in recipients of DNBS-pulsed DCs from old animals ([8]; ex vivo SFN treatment of BM-DCs (5 μM for 24 hours)): could restore the CHS response; also recorded: reverses the age-related decrease in the CHS response
effects on overall well-being or body weight [9]: Neither the CHS procedure nor SFN administration had any effects
expression of GATA-3 [10]: Neither aging nor SFN treatment had an effect
increase in cellular thiol levels (MBB staining) ([11]; BM-DCs from old animals, SFN 5 μmol/L for 24 hours): 15%
ear-swelling response in nonsensitized (control) animals ([12]; nonsensitized control animals): no effect
decrease in lymphocyte infiltration and intercellular edema in ear (hematoxylin and eosin) ([12]; old mice, ear histology 48 hours after challenge): could be reversed
Nrf2-mediated phase II enzyme (p2E) gene expression [13]: significantly activates

O=C(O)CCCCC1CCSS1 (stereo not drawn) [α-lipoic acid]
nuclear Nrf2 levels, γ-CLC expression and GSH production [14]: increase nuclear Nrf2 levels in parallel with increased γ-CLC expression and GSH production

CC(=O)N[C@@H](CS)C(=O)O [NAC, N-acetylcysteine]
ear thickness [15]: dose-dependent increase
TNCB response [16]: reduced the TNCB response
binding of the contact sensitizer TNCB to cellular proteins [17]: block the binding
CHS response in recipients of DNBS-pulsed DCs from old animals ([8]; ex vivo NAC treatment of BM-DCs (20 mM for 1 hour), washed): restored the CHS response; also recorded: increases the CHS response; also recorded: reverses the age-related decrease in the CHS response
increase in cellular thiol content (MBB staining) ([11]; BM-DCs, NAC exposure (FIG. 8: 20 mmol/L for 24 hours)): 25%
